Source: patent US11433087B2, “Anti-tumor compound with high CD169 affinity, method thereof, and use thereof” (Xiamen Nuokangde Biological Technology Co., Ltd., priority 2017, dated 2022)

Assays:
[1] = tested on: human malignant glioma cells (U87); assay: Toxicity in cells (counting dead cells, cell survival rate); format: cell-based; details: U87, different concentrations 0-100 μmol, 24 hours; FIG. 4
Description: Culturing human malignant glioma cells (U87) in the constant temperature incubator containing 5% CO2 at 37° C., and a seventh medium of the human malignant glioma cells is DMEM containing 10% fetal bovine serum;
Transferring the human malignant glioma cells to a confocal cell culture dish, culturing to a density of 50%, removing the seventh medium, adding an eighth medium comprising TCC-Neu5Ac of different concentrations from 0 to 100 μmol (100 μM), and further culturing for 24 hours; and
Removing the eighth medium comprising TCC-Neu5Ac, washing carefully with PBS for three times, adding a ninth medium, and counting dead cells of the human malignant glioma cells.
Counting results of the dead cells are shown in FIG. 4, wherein abscissa represents different concentrations of TCC Neu5Ac in the eight medium, and ordinate represents a cell survival rate of the human malignant glioma cells. […] Therefore, the anti-tumor compound with high CD169 affinity of the present disclosure has extremely low toxicity in the cells and has potential ability for human tumor treatment.

[2] = tested on: B16F10 cells; assay: Phagocytic effects of macrophages (BMDM) on tumor cells, lactate dehydrogenase cytotoxicity test kit; format: cell-based, mouse; details: BMDM and B16F10 cells 5:1; compared with control group medium added with Neu5Ac; FIG. 5
Description: Taking out bone marrow of 10 week old mice, adding with a solution of potassium ammonium chloride (ACK), and then culturing cells of the bone marrow in an Iscove's modified dulbecco medium (IMDM) comprising 10% (volume ratio) fetal bovine serum (FBS) and 10 ng/mL macrophage […] stimulating factor to obtain bone marrow derived macrophages (BMDM). Culturing BMDM and B16F10 cells of a ratio of 5:1 respectively in an experimental group medium and a control group medium. Adding TCC-Neu5Ac to the experimental group medium, adding Neu5Ac of the same volume to the control group medium, detecting by Lactate dehydrogenase cytotoxicity test kit, selecting a 490 nm absorption peak in a microplate reader, and converting to phagocytic killing efficiency.

[3] = tested on: B16F10 cells; assay: Anti-tumor effects in tumor-bearing mice injected with the compound; format: in vivo, mice B6 (C57BL/6); details: subcutaneous B16F10 in C57BL/6 mice; tail vein injection of 100 mL PBS, 100 μmol, every two days, 15 days; versus 100 μmol natural sialic acid; FIG. 6-9
Description: Culturing B16F10 cells in a 10 cm cell culture dish to a density of 80%;
Digesting with 2 mL tyrisin for 90 seconds, neutralizing with 2 mL medium, centrifuging under 300 g for 3 minutes, rinsing with PBS repeatedly, centrifuging once to remove any remaining medium, and adding PBS to resuspend and count an amount of the B16F10 cells;
Injecting subcutaneously 1 million of the B16F10 cells into mice B6 (C57BL/6) for tumor planting, and then injecting […] PBS comprising the anti-tumor compound of the present disclosure with a concentration of 100 μmol from a tail vein of mice every two days as an experimental group 1;
Injecting PBS of the same volume comprising 100 μmol natural sialic acid as a control group 1, and the other conditions of the control group 1 are the same as the experimental group 1; and
After 15 days, removing hair from tumor areas of the mice, taking pictures (as shown in FIG. 6 and FIG. 7), taking out tumors from the mice, and taking pictures for analysis.

[4] = tested on: B16F10 cells; assay: Anti-tumor effects in tumor-bearing mice orally administrated with the compound; format: in vivo, B6 mice (C57BL/6); details: subcutaneous B16F10 in C57BL/6 mice; oral 200 μL aqueous solution, 100 μmol, daily, 15 days; versus natural sialic acid; FIG. 10-13
Description: Culturing B16F10 cells in a 10 cm cell culture dish to a density of 80%, digesting with 2 mL tyrisin for 90 seconds, neutralizing with 2 mL medium, centrifuging under 300 g for 3 minutes, rinsing with PBS repeatedly, centrifuging once to remove any residual medium, adding PBS to resuspend and count an amount of the B16F10 cells, and injecting subcutaneously 1 million of the B16F10 cells into the of B6 mice (C57BL/6) for tumor planting;
Feeding 200 μL of an aqueous solution comprising the 100 μmol of the anti-tumor compound with high CD169 affinity of the present disclosure daily as an experimental group 2;
Feeding water solution with the same volume comprising natural sialic acid as a control group 2; and
After 15 days, removing hair from tumor areas of the B6 mice, taking pictures, taking out tumors from the B6 mice, and taking pictures for analysis.

[5] = tested on: B16F10 cells; assay: Tumor metastasis analysis model in mice; format: in vivo, B6 mice (C57BL/6); details: B16F10 injected from tail veins in C57BL/6 mice; 200 μL, 100 μmol, tail vein every two days, 15 days; versus 100 μmol natural sialic acid (Neu5Ac); FIG. 14
Description: Culturing B16F10 cells in a 10 cm cell culture dish to a density of 80%, digesting with 2 mL tyrisin for 90 seconds, neutralizing with 2 mL medium, centrifuging under 300 g for 3 minutes, rinsing with PBS repeatedly, centrifuging once to remove any residual medium, and adding PBS to resuspend and count an amount of the B16F10 cells.
Injecting 1 million of the B16F10 cells into B6 mice (C57BL/6) from tail veins for preparing a tumor metastasis analysis model. Then, injecting 200 μL of an aqueous solution comprising the 100 μmol of the anti-tumor compound with high CD169 affinity of the present disclosure every two days from tail veins as an experimental group 3, and injecting water solution with the same volume comprising 100 μmol of natural sialic acid (Neu5Ac) as a control group 3. After 15 days, removing hair from tumor areas of the B6 mice and taking pictures. Then, taking out tumors from the B6 mice and taking pictures for analysis. An ordinate position of a black solid circle indicates a number of the tumors transferred to lungs of a mouse of the experimental group 3. An ordinate position of one black solid square indicates a number of the tumors transferred to lungs of a mouse of the control group 3. It can be seen from FIG. 14 that the number of the tumors transferred to the lungs in the experimental group 3 is far lower than that in the control group 3. […]

In the case of `CC(=O)N[C@@H]1C(O)C[C@](O)(C(=O)O)OC1C(O)C(O)CNC(=O)c1cc2c(s1)-c1ccccc1OC2` (some centres unmarked) [TCC-Neu5Ac, 9-benzopyranothiophene-n-acetylneuraminic acid monosaccharide], the “cell survival rate of the human malignant glioma cells” value [1] was “does not differ much”, the “killing rate of phagocytes to tumors” value [2] was “significantly higher” and the “sizes of the tumors” value [3] was “significantly smaller”. For the same molecule, the “sizes of the tumors” value [4] was “significantly smaller” and the “number of the tumors transferred to the lungs” value [5] was “far lower”.
